Data published in patent US20140121181A1, “HYDROPHOBIC POLYMER COMPOUND HAVING ANTICOAGULANT EFFECT” (TORY INDUSTRIES, INC., priority 2011, published 2014).

Tested on: citric acid-supplemented blood collected from a volunteer
Assay: Measurement of whole blood coagulation time (Sonoclot, ACT ONSET value)
Design: species or system human
Method: In a cuvette (Non-activated Clotting Test Kit), 18 μL of physiological saline was placed and 14.8 μL of calcicol was added thereto, followed by further addition of 342 μL of the thus obtained citric acid-supplemented blood. The resulting mixture was measured using a Sonoclot blood coagulation/platelet function analyzer (IMI Co., Ltd.) and the measured ACT ONSET value was defined as the whole blood coagulation time.

CC1CNc2c(cccc2S(=O)(=O)N[C@@H](CCCNC(=N)N)C(=O)N2CC[C@@H](C)C[C@@H]2C(=O)O)C1 (mixture of isomers) [argatroban, (2R,4R)-4-methyl-1-((2S)-2-{[(3RS)-3-methyl-1,2,3,4-tetrahydroquinolin-8-yl]sulfonyl}amino-5-guanidinopentanoyl)piperidine-2-carboxylic acid]
whole blood coagulation time (2 μM test solution/dispersion in place of physiological saline): 520 s
whole blood coagulation time (10 μM test solution in place of physiological saline): 734 s
whole blood coagulation time (20 μM test solution in place of physiological saline): 893 s
